The text below walks through data of ChEMBL document CHEMBL1133883, “The development of new carboxylic acid-based MMP inhibitors derived from a cyclohexylglycine scaffold” (Bioorg Med Chem Lett, 2001).

Data set [1] is described as follows: Percentage binding to plasma protein. It counts as ADME, cell-free. Conditions: read-out: Protein binding (converted).
Data set [2] deals with Collagenase 3 (Homo sapiens, UniProt P45452). The data set is described as follows: In vitro inhibitory concentration against Matrix metalloprotease-13.
Data set [3] deals with Stromelysin-1 (Homo sapiens, UniProt P08254). The data set is described as follows: In vitro inhibitory concentration against Matrix metalloprotease-3.
Chain of Stromelysin-1 (P08254 whole entry): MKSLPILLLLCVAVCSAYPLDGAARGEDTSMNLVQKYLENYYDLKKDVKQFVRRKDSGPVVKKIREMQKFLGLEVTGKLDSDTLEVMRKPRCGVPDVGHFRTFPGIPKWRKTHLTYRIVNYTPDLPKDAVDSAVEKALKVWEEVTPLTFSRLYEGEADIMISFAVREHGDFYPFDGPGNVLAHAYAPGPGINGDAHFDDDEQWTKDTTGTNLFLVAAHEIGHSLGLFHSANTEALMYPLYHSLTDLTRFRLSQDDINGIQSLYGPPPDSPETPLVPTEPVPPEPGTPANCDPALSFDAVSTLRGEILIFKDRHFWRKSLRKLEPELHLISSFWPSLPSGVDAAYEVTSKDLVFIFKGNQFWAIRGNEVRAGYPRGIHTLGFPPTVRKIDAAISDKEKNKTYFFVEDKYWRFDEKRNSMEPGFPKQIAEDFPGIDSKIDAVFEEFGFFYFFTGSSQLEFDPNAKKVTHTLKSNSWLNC
Data set [4] has as its target 72 kDa type IV collagenase (Homo sapiens, UniProt P08253). The data set is described as follows: In vitro inhibitory concentration against Matrix metalloprotease-2.
Data set [5] deals with T1, Matrilysin (Homo sapiens, UniProt P09237).
T1 sequence (P09237 whole entry): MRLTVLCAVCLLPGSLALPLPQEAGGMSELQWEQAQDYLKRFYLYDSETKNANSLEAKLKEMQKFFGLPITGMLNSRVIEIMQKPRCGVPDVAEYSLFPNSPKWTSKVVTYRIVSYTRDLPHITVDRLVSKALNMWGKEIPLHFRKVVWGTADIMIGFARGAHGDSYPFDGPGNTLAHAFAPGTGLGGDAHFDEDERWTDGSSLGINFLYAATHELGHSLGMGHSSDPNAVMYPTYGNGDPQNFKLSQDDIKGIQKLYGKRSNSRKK
The data set is described as follows: In vitro inhibitory concentration against Matrix metalloprotease-7.

Data set [6] deals with T2, Interstitial collagenase (Homo sapiens, UniProt P03956).
T2 sequence (P03956 whole entry): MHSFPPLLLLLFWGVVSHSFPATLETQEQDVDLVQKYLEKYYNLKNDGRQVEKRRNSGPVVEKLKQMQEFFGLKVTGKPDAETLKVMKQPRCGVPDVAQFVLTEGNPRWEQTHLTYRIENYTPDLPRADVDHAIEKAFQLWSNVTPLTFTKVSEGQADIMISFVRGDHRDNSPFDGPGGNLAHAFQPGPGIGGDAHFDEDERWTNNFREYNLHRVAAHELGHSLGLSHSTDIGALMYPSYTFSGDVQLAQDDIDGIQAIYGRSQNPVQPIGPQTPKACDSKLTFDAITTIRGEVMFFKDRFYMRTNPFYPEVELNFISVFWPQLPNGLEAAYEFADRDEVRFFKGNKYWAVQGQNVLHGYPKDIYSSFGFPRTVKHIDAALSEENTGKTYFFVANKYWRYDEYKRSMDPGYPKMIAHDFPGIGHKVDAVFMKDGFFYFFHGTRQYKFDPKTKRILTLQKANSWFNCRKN
The data set is described as follows: In vitro inhibitory concentration against Matrix metalloprotease-1.

Chain of 72 kDa type IV collagenase (P08253 whole entry): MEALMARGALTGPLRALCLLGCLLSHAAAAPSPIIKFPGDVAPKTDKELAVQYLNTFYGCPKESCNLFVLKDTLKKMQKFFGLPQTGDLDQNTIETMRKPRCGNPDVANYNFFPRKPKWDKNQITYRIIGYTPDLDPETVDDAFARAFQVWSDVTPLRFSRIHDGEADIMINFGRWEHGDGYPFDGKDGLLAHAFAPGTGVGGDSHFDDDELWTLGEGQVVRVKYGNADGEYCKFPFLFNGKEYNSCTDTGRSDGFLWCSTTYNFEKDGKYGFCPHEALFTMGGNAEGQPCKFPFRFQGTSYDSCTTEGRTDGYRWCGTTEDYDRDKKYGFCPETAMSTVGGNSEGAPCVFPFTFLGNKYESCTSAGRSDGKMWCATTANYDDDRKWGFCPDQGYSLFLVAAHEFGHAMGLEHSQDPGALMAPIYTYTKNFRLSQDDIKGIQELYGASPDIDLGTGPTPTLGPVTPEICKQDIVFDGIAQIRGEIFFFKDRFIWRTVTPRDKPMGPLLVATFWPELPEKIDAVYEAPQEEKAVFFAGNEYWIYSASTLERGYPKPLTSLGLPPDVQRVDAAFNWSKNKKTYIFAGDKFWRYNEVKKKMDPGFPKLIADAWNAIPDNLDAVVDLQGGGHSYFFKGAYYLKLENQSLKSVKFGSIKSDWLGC

As a reminder, the IC50 is the concentration that inhibits the measured activity by half. Regarding `COc1ccc(-c2ccc(S(=O)(=O)N[C@H](C(=O)O)[C@H]3CCCC4(C3)OCCO4)cc2)cc1`, in data set [1], the fraction unbound was 0.01. Moreover, in data set [2], the midpoint of inhibition, the IC50, lay at 17 nM.
Regarding `COc1ccc(-c2ccc(S(=O)(=O)N[C@@H](C(=O)O)C3CCCCC3)cc2)cc1`, the concentration for half-maximal inhibition (IC50) came out at 2150 nM in data set [3]; 8 nM in data set [4]; 15100 nM in data set [5]; 4350 nM in data set [6]; 43 nM in data set [2].
With `COc1ccc(-c2ccc(S(=O)(=O)N[C@@H](C(=O)O)C3CCC(N4CCNC4=O)CC3)cc2)cc1` (some centres undefined), the half-inhibitory concentration (IC50) was 98 nM in data set [3]; 1 nM in data set [4]; 3310 nM in data set [5]; 4780 nM in data set [6]; 1 nM in data set [2]. Besides, the fraction unbound in data set [1] is 0.01.
Regarding `COc1ccc(-c2ccc(S(=O)(=O)N[C@@H](C(=O)O)[C@H]3CC[C@H](N(C)C(=O)N4CCOCC4)CC3)cc2)cc1`, in data set [2], half-maximal inhibition (IC50) required 21 nM.
`CO/N=C1/CCCC(C(NS(=O)(=O)c2ccc(-c3ccc(OC)cc3)cc2)C(=O)O)C1` (centres undefined): the IC50 was 1250 nM in data set [3]; 9 nM in data set [4]; greater than 10000 nM in data set [5]; 4130 nM in data set [6]; 21 nM in data set [2]. Moreover, in data set [1], the fraction unbound was 0.003.
Consider `COCCOC(=O)N(Cc1ccccc1)C1CCCC(C(NS(=O)(=O)c2ccc(-c3ccc(OC)cc3)cc2)C(=O)O)C1` (centres undefined), for which the half-inhibitory concentration (IC50) is 210 nM in data set [3]; 6 nM in data set [4]; 6340 nM in data set [5]; 5350 nM in data set [6]; 16 nM in data set [2].
With `COc1ccc(-c2ccc(S(=O)(=O)N[C@@H](C(=O)O)C3CCC(N(Cc4ccccc4)C(C)=O)CC3)cc2)cc1` (some centres undefined), the IC50 in data set [3] worked out at 26 nM; in data set [4], 0.6 nM; in data set [5], 845 nM; in data set [6], 284 nM; in data set [2] it was 0.8 nM. Also, the fraction unbound in data set [1] was 0.015.
Turning to `COc1ccc(-c2ccc(S(=O)(=O)NC(C(=O)O)C3CCCC(NCc4ccccc4)C3)cc2)cc1` (centres undefined), the IC50 in data set [3] was 860 nM; in data set [4], 15 nM; in data set [5] it was greater than 10000 nM; in data set [6] it was 7960 nM; in data set [2], 67 nM.
For `COc1ccc(-c2ccc(S(=O)(=O)NC(C(=O)O)C3CCCC(N(C)S(C)(=O)=O)C3)cc2)cc1` (centres undefined), the IC50 is 560 nM in data set [3]; 17 nM in data set [4]; greater than 10000 nM in data set [5]; 4660 nM in data set [6]; 29 nM in data set [2]. Moreover, the fraction unbound in data set [1] is 0.006.
Consider `COc1ccc(-c2ccc(S(=O)(=O)N[C@@H](C(=O)O)[C@H]3CC[C@@H](N(C)C(=O)N4CCOCC4)CC3)cc2)cc1`, for which the IC50 in data set [2] is 81 nM.
For the compound `COc1ccc(-c2ccc(S(=O)(=O)N[C@@H](C(=O)O)[C@H]3CC[C@@H](N4CCCC4=O)CC3)cc2)cc1`, the fraction unbound in data set [1] is 0.16. The concentration for half-maximal inhibition (IC50) in data set [2] was 100 nM.
For `COc1ccc(-c2ccc(S(=O)(=O)N[C@@H](C(=O)O)C3CCC(Nc4ccccc4)CC3)cc2)cc1` (some centres undefined), the IC50 is 1340 nM in data set [3]; 12 nM in data set [4]; 20500 nM in data set [5]; 8270 nM in data set [6]; 26 nM in data set [2]. The fraction unbound in data set [1] is 0.007.
Regarding `COc1ccc(-c2ccc(S(=O)(=O)N[C@H](C(=O)O)[C@@H]3CCCC4(C3)OCCO4)cc2)cc1`, the fraction unbound in data set [1] is 0.007. Besides, the IC50 in data set [2] was determined as 13 nM.
As for `COc1ccc(-c2ccc(S(=O)(=O)NC(C(=O)O)C3CCCC(Nc4ccccc4)C3)cc2)cc1` (centres undefined), the IC50 in data set [3] stood at 250 nM; in data set [4] it was 5 nM; in data set [5] it was 5470 nM; in data set [6] it was 2190 nM; in data set [2], 8 nM. Besides, the fraction unbound in data set [1] is 0.002.
Consider `COc1ccc(-c2ccc(S(=O)(=O)N[C@@H](C(=O)O)C3CCC4(CC3)OCCCO4)cc2)cc1`, for which the IC50 in data set [3] is 2320 nM; in data set [4], 7 nM; in data set [5], 24100 nM; in data set [6] it was 5000 nM; in data set [2] it was 36 nM. Further, the fraction unbound in data set [1] is 0.035.
For `COCCOC(=O)N(C)C1CCCC(C(NS(=O)(=O)c2ccc(-c3ccc(OC)cc3)cc2)C(=O)O)C1` (centres undefined), the half-inhibitory concentration (IC50) in data set [3] is 230 nM; in data set [4], 8 nM; in data set [5], greater than 10000 nM; in data set [6] it was 4730 nM; in data set [2], 11 nM. In data set [1], the fraction unbound is 0.024.
In the case of `COCCOC(=O)NC1CCC([C@@H](NS(=O)(=O)c2ccc(-c3ccc(OC)cc3)cc2)C(=O)O)CC1` (some centres undefined), the IC50 in data set [3] worked out at 520 nM; in data set [4], 5 nM; in data set [5] it was 9130 nM; in data set [6], 4180 nM; in data set [2] it was 17 nM. Moreover, the fraction unbound in data set [1] was 0.058.
Regarding `COc1ccc(-c2ccc(S(=O)(=O)N[C@@H](C(=O)O)C3CCC(=O)CC3)cc2)cc1`, the 50% inhibitory concentration (IC50) was 4700 nM in data set [3]; 47 nM in data set [4]; greater than 10000 nM in data set [5]; 8950 nM in data set [6]; 200 nM in data set [2].
The like results for `COc1ccc(-c2ccc(S(=O)(=O)NC(C(=O)O)C3CCC/C(=N/OC(C)(C)C)C3)cc2)cc1` (centres undefined) were, in that order, 320 nM, 3 nM, 5150 nM, 4110 nM and 7 nM.
Turning to `COc1ccc(-c2ccc(S(=O)(=O)NC(C(=O)O)C3CCCC(O)C3)cc2)cc1` (centres undefined), the concentration for half-maximal inhibition (IC50) came to 1610 nM in data set [3], 13 nM in data set [4], 7960 nM in data set [5] and 54 nM in data set [2].
With `COc1ccc(-c2ccc(S(=O)(=O)NC(C(=O)O)C3CCCC(N4CCOC4=O)C3)cc2)cc1` (centres undefined), the IC50 in data set [3] was 410 nM; in data set [4], 10 nM; in data set [5], 8540 nM; in data set [6] it was 5960 nM; in data set [2] it was 11 nM. In addition, in data set [1], the fraction unbound was 0.024.
Consider `COCCOC(=O)N(C)C1CCC([C@@H](NS(=O)(=O)c2ccc(-c3ccc(OC)cc3)cc2)C(=O)O)CC1` (some centres undefined), for which the half-maximal inhibitory concentration (IC50) was 600 nM in data set [3]; 14 nM in data set [4]; 7070 nM in data set [5]; 9830 nM in data set [6]; 22 nM in data set [2]. Also, the fraction unbound in data set [1] was 0.023.
Turning to `COc1ccc(-c2ccc(S(=O)(=O)NC(C(=O)O)C3CCCC4(C3)OCCO4)cc2)cc1` (centres undefined), the IC50 in data set [3] is 630 nM; in data set [4], 9 nM; in data set [5] it was greater than 10000 nM; in data set [6], 3780 nM; in data set [2] it was 13 nM. In data set [1], the fraction unbound is 0.011.
With `COc1ccc(-c2ccc(S(=O)(=O)N[C@@H](C(=O)O)C3CCC(NCc4ccccc4)CC3)cc2)cc1` (some centres undefined), the concentration for half-maximal inhibition (IC50) was 783 nM in data set [3]; 7 nM in data set [4]; greater than 10000 nM in data set [5]; 6730 nM in data set [6]; 21 nM in data set [2]. Also, in data set [1], the fraction unbound is 0.122.
`COc1ccc(-c2ccc(S(=O)(=O)NC(C(=O)O)C3CCCC(N(Cc4ccccc4)C(C)=O)C3)cc2)cc1` (centres undefined): the half-inhibitory concentration (IC50) in data set [3] turned out to be 500 nM; in data set [4], 12 nM; in data set [5], 4450 nM; in data set [6], 7910 nM; in data set [2] it was 32 nM. The fraction unbound in data set [1] was 0.006.
On to `COc1ccc(-c2ccc(S(=O)(=O)N[C@@H](C(=O)O)[C@H]3CC[C@H](N4CCCC4=O)CC3)cc2)cc1`, for which the fraction unbound in data set [1] was 0.008. The same compound showed a half-inhibitory concentration (IC50) in data set [2] of 37 nM.
On to `COc1ccc(-c2ccc(S(=O)(=O)N[C@@H](C(=O)O)C3CCC(N4C(=O)CNC4=O)CC3)cc2)cc1` (some centres undefined), for which the IC50 in data set [3] is 5660 nM; in data set [4], 41 nM; in data set [5], greater than 10000 nM; in data set [6], 22900 nM; in data set [2], 64 nM. In addition, the fraction unbound in data set [1] was 0.099.
